Reference: patent publication US20260174783A1, “HALOBETASOL PROPIONATE-LIDOCAINE FORMULATIONS” (priority 2023, published 2026)

Assay: In vitro permeation test: delivery of Halobetasol Propionate to the skin
Type: in vitro ADME
Conditions: Formulations 1 and 2
Description: The ability of the formulations of the present invention to deliver the APIs to their active sites was investigated by in vitro permeation tests.

Halobetasol Propionate receiver media concentration: no receiver media concentration
SMILES: CCC(=O)O[C@]1(C(=O)CCl)[C@@H](C)C[C@H]2[C@@H]3C[C@H](F)C4=CC(=O)C=C[C@]4(C)[C@@]3(F)[C@@H](O)C[C@@]21C [Halobetasol Propionate, (6α, 11β, 16β)-21-Chloro-6,9-difluoro-11-hydroxy-16-methyl-17-(1-oxopropoxy) pregna-1,4-diene-3,20-dione]
